Experimental data as given in patent US6455700B1, “Process for preparing guanidine and amidine derivatives” (Boehringer Ingelheim Pharma KG., priority 1998, dated 2002).
Counter-ions that a name gives are not always drawn.

Key:
[1] = molecular target: T1, NK1 receptor (substance P receptor) (Homo sapiens, UniProt P25103); experiment: NK1 receptor affinity, displacement of 125I-labelled substance P on IM-9 cells; assay type: binding; settings: human lymphoblastoma cells (IM-9) with cloned NK1 receptors
T1 construct: expressed in transfected cells; host or cells: human lymphoblastoma cells (IM-9)
T1 sequence (P25103 whole entry): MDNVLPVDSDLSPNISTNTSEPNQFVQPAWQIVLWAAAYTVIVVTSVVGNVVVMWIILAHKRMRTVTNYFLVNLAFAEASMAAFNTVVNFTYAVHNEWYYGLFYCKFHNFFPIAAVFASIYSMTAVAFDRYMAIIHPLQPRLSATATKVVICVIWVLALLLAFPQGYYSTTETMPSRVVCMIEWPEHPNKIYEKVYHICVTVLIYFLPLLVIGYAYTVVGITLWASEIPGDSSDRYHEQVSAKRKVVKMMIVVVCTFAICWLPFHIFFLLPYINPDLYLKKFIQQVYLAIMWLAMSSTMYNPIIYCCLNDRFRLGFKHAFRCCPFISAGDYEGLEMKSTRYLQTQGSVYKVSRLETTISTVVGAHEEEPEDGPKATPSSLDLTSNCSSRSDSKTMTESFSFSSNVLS
Method: Results of investigations into the compound according to the invention: The receptor affinity for the NK1 receptor (substance P receptor) is determined on human lymphoblastoma cells (IM-9) with cloned NK1 receptors, by measuring the displacement of ^125I-labelled substance P. The Ki values thus obtained show the efficacy of the compounds.

Compound | melting point | Ki [1] [nM]
CN(CCc1cc(C(F)(F)F)cc(C(F)(F)F)c1)C(=O)C(c1ccccc1)N1CCN(C(=N)N)CC1 (racemic) (as salt: hydrochloride) [Example 1, (R,S)-1-Amidino-4-[2-phenylacetic acid-N-methyl-N-(3,5-bis-trifluoromethyl-phenyl-ethyl)-amide]-piperazine, dihydrochloride] | 128 to 138 °C | –
CN(CCc1cc(C(F)(F)F)cc(C(F)(F)F)c1)C(=O)C(c1ccccc1)N1CCN(C(=N)N)CC1 (racemic) [Example 1, (R,S)-1-Amidino-4-[2-phenylacetic acid-N-methyl-N-(3,5-bis-trifluoromethyl-phenyl-ethyl)-amide]-piperazine, dihydrochloride] | – | 0.45
CC(C)/N=C(/NC(C)C)N1CCN(C(C(=O)N(C)CCc2cc(C(F)(F)F)cc(C(F)(F)F)c2)c2ccccc2)CC1 (racemic) [Example 4] | 176 to 186 °C (dec.) | 0.53
CN(CCc1cc(C(F)(F)F)cc(C(F)(F)F)c1)C(=O)C(c1ccccc1)N1CCN(C2=NCCN2)CC1 (centres unmarked) [Example 2] | 163 to 173 °C | 0.3
CNC(=N)N1CCN(C(C(=O)N(C)CCc2cc(C(F)(F)F)cc(C(F)(F)F)c2)c2ccccc2)CC1 (centres unmarked) [Example 3] | 69 to 79 °C | 0.2
CCN/C(=N/C(C)(C)C)N1CCN(C(C(=O)N(C)CCc2cc(C(F)(F)F)cc(C(F)(F)F)c2)c2ccccc2)CC1 (centres unmarked) [Example 5] | 174 to 184 °C (dec.) | 6.28
CN(CCc1cc(C(F)(F)F)cc(C(F)(F)F)c1)C(=O)C(c1ccccc1)N1CCN(/C(=N\C2CCCCC2)N(C)C2CCCCC2)CC1 (centres unmarked) [Example 6] | – | 0.88
CN(CCc1cc(C(F)(F)F)cc(C(F)(F)F)c1)C(=O)C(c1ccccc1)N1CCN(/C(=N\C2CCCCC2)NC2CCCCC2)CC1 (centres unmarked) [Example 7] | 182 to 188 °C (dec.) | 1.45
CN(CCc1cc(C(F)(F)F)cc(C(F)(F)F)c1)C(=O)[C@H](c1ccccc1)N1CCN(C2=NCCN2C)CC1 [Example 8] | – | 0.19
C/N=C(\NC)N1CCN(C(C(=O)N(C)CCc2cc(C(F)(F)F)cc(C(F)(F)F)c2)c2ccccc2)CC1 (centres unmarked) [Example 9] | 126 to 140 °C | 0.14
CN(C)C(=N)N1CCN(C(C(=O)N(C)CCc2cc(C(F)(F)F)cc(C(F)(F)F)c2)c2ccccc2)CC1 (centres unmarked) [Example 10] | – | 0.12
CN(CCc1cc(C(F)(F)F)cc(C(F)(F)F)c1)C(=O)C(c1ccccc1)N1CCN(C(=N)Nc2ccccc2)CC1 (centres unmarked) [Example 12] | 240 to 245 °C (dec.) | 0.32
CN(CCc1cc(C(F)(F)F)cc(C(F)(F)F)c1)C(=O)[C@H](c1ccccc1)N1CCN(/C(=N/C(=O)c2ccccc2)N(C)C)CC1.Cl [Example 27] | 124 to 128 °C | 1.11
Cc1ccc(/N=C(\Nc2ccc(C)cc2)N2CCN(C(C(=O)N(C)CCc3cc(C(F)(F)F)cc(C(F)(F)F)c3)c3ccccc3)CC2)cc1 (centres unmarked) [Example 28] | – | 4.16
CN(CCc1cc(C(F)(F)F)cc(C(F)(F)F)c1)C(=O)[C@H](c1ccccc1)N1CCN(/C(=N/C(=O)c2ccccc2)Nc2ccccc2)CC1 [Example 29] | – | 0.87
CN(CCc1cc(C(F)(F)F)cc(C(F)(F)F)c1)C(=O)C(c1ccccc1)N1CCN(C(=N)N2CCOCC2)CC1 (centres unmarked) [Example 30] | – | 0.17
CC(C)N/C(=N\C(=O)c1ccccc1)N1CCN(C(C(=O)N(C)CCc2cc(C(F)(F)F)cc(C(F)(F)F)c2)c2ccccc2)CC1 (centres unmarked) [Example 31] | – | 8.96
CC(C)NC(=N)N1CCN(C(C(=O)N(C)CCc2cc(C(F)(F)F)cc(C(F)(F)F)c2)c2ccccc2)CC1 (centres unmarked) [Example 32] | – | 0.2
CN(CCc1cc(C(F)(F)F)cc(C(F)(F)F)c1)C(=O)C(c1ccccc1)N1CCN(/C(=N/C(=O)c2ccccc2)NCc2ccccc2)CC1 (centres unmarked) [Example 33] | – | 13.2
CN(CCc1cc(C(F)(F)F)cc(C(F)(F)F)c1)C(=O)C(c1ccccc1)N1CCN(/C(N)=N/Cc2ccccc2)CC1 (centres unmarked) [Example 34] | – | 0.37
CN(CC(c1ccc(Cl)c(Cl)c1)N1CCN(C(=N)N)CC1)C(=O)Cc1cc(C(F)(F)F)cc(C(F)(F)F)c1 (centres unmarked) [Example 35] | – | 0.78
